The results in this text go back to patent US12644087B2, “Methods to generate polymer scaffolds having a gradient of crosslinking density” (The University of North Carolina at Chapel Hill, priority 2016, dated 2026).

The series concerns primary human small intestinal epithelial cells.

Protocol: Continuous monolayers of primary human small intestinal epithelial cells were generated on the crosslinked collagen hydrogel scaffold. […] (FIG. 3B) Fluorescence images of cells showing the EDU staining (white/light gray) and Hoechst 33342 (dark gray). The cell culture time was 10 days for A and B. (FIG. 3C) TEER vs. time (n=3 scaffolds).
To test this hypothesis, human small intestinal epithelial cells were plated on a hydrogel scaffold prepared in this manner, and the cell growth and TEER were monitored for up to 14 days (FIG. 3C). […] At day 10, the cells were stained with EDU (3-h pulse) to assess proliferating cells and Hoecsht nuclear stain to enable assessment of cell coverage across the scaffold (FIGS. 3A and 3B).

Turning to Lucifer yellow, the “permeability of Lucifer yellow (apical to basal diffusion)” value is 2.4±0.7 ×10^−8 cm·s^−1.
